How the values were obtained:
Aldose reductase = biological target: T1, Aldose reductase (Bos taurus, UniProt P16116); assay: Effect on Aldose Reductase (inhibition of enzyme activity, photometric); format: biochemical; conditions: 1×10^-5 M, aldose reductase partially purified from bovine lenses; read-out: Percent Inhibition of aldose reductase
T1 construct: Aldose reductase was separated and partially purified from bovine lenses; from tissue; host or cells: bovine lens
Procedure: Aldose reductase was separated and partially purified from bovine lenses by the method of Hayman and Kinoshita [J. Biol. Chem., 240, 877 (1965)]. Enzyme activities were photometrically determined by the method of Varma et al. [Biochem, Pharmac., 25, 2505 (1976)].
The inhibition of aldose reductase activity was determined employing each test compound in a concentration of 1×10^-5 M, and the results are as shown in Table 30.
As a control, the known compound, 5-[4-(1-methylcyclohexylmethoxy)benzyl]thiazolidine-2,4-dione ("Cpd. A") was tested by the same method and the result is also shown in Table 30: […]

[1] = tested on: male mice of the ddY strain; assay: Toxicity (acute oral, one-week observation); format: in vivo
Procedure: The test animals used were male mice of the ddY strain. The animals were employed in groups of 3. The animals of each group were administered orally with a single test compound in a dose of 300 mg/kg body weight. The compounds employed were those prepared as described in Examples 3, 4, 5 and 13.

[2] = oral, 300 mg/kg body weight, male ddY mice, groups of 3, 1 week

inhibition at 10 µM (Aldose reductase)	Compound	abnormalities attributable to the test compounds during observation [1, 2]	survival at the end of the 1 week observation period [1, 2]	other results
16.2%	CC1(COc2ccc(CC3SC(=O)NC3=O)cc2)CCCCC1 (stereo not drawn) [Cpd. A, 5-[4-(1-methylcyclohexylmethoxy)benzyl]thiazolidine-2,4-dione, reference compound]	–	–	–
–	CCCCCCCCC1(COc2ccc(CC3SC(=O)NC3=O)cc2)CCc2c(C)c(O)c(C)c(C)c2O1 (stereo not drawn) [Example 3, 5-[4-(6-Hydroxy-5,7,8-trimethyl-2-octylchroman-2-yl-methoxy)benzyl]thiazolidine-2,4-dione]	no abnormalities	All animals were alive	–
–	CC(=O)Oc1cc2c(cc1C(C)(C)CC(C)(C)C)OC(C)(COc1ccc(CC3SC(=O)NC3=O)cc1)CC2 (stereo not drawn) [Example 4, 5-[4-(6-Acetoxy-2-methyl-7-(1,1,3,3-tetramethylbutyl)-chroman-2-ylmethoxy)benzyl]thiazolidine-2,4dione]	no abnormalities	All animals were alive	–
–	CC(C)(C)CC(C)(C)c1cc2c(cc1O)CCC(C)(COc1ccc(CC3SC(=O)NC3=O)cc1)O2 (stereo not drawn) [Example 5, 5-{4-[6Hydroxy-2-methyl-7-(1,1,3,3-tetramethylbutyl)-chroman-2-ylmethoxy]benzyl}thiazolidine-2,4-dione]	no abnormalities	All animals were alive	–
51.6%	Cc1c(C)c2c(c(C)c1OCC(=O)O)CCC(C)(COc1ccc(CC3SC(=O)NC3=O)cc1)O2 (stereo not drawn) [Example 58, α-{2-[4-(2,4-Dioxothiazolidin-5-ylmethyl)phenoxymethyl]-2,5,7,8-tetramethylchroman-6yloxy}acetic acid]	–	–	–
79.5%	Cc1c(C)c2c(c(C)c1OCC(=O)O)C(=O)CC(C)(COc1ccc(CC3SC(=O)NC3=O)cc1)O2 (stereo not drawn) [Example 59, α-{2-[4-(2,4-Dioxothiazolidin-5-ylmethyl)-phenoxymethyl]-2,5,7,8-tetramethyl-4-oxochroman-6-yloxy}acetic acid]	–	–	–

Compound	inhibition at 10 µM (Aldose reductase)	abnormalities attributable to the test compounds during observation [1, 2]	survival at the end of the 1 week observation period [1, 2]	other results
Cc1c(C)c2c(c(C)c1O)/C(=N/O)CC(C)(COc1ccc(CC3SC(=O)NC3=O)cc1)O2 (stereo not drawn) [Example 13, 5-{4-[6-Hydroxy-4-(E)-hydroxyimino-2,5,7,8-tetramethylchroman-2-ylmethoxy]benzyl}thiazolidine-2,4-dione]	55.5%	–	–	abnormalities attributable to the test compounds during observation ([1]; mouse, in vivo, po, 300 mg/kg): no abnormalities; survival at the end of the 1 week observation period ([1]; mouse, in vivo, po, 300 mg/kg): All animals were alive

Reference: patent US5104888A, “Thiazolidine derivatives, their preparation and use” (Sankyo Company, Limited, priority 1985, dated 1992)
